Test results: ChEMBL document CHEMBL1131865, “Aminomethyl-2,6-difluorophenols as a novel class of increased lipophilicity GABA(C) receptor antagonists” (Bioorg Med Chem Lett, 1999)
Active and inactive are the calls of the source. The rule behind the calls is not given here.

Key:
GABA B receptor = GABA B receptor (Rattus norvegicus, UniProt O88871+Q9Z0U4); assay: Displacement of [3H]GABA from Gamma-aminobutyric acid type B receptor in rat brain membranes; type: cell membranes
[1] = target: Gamma-aminobutyric acid receptor subunit rho-1 (Homo sapiens) (UniProt P24046); assay: Inhibition of inward current in oocytes expressing human GABA-C receptor rho1 subunit (No inhibition); type: cell-based; details: Oocyte
[2] = Dissociation constant was determined; type: physicochemical
[3] = Partition coefficient (logD); type: physicochemical; details: octanol/water
[4] = target: Gamma-aminobutyric acid receptor subunit rho-1 (Homo sapiens) (UniProt P24046); assay: Inhibition of inward current in oocytes expressing human GABA-C receptor rho1 subunit; type: cell-based; details: Oocyte

Chain of Gamma-aminobutyric acid receptor subunit rho-1 (Homo sapiens) (P24046 whole entry): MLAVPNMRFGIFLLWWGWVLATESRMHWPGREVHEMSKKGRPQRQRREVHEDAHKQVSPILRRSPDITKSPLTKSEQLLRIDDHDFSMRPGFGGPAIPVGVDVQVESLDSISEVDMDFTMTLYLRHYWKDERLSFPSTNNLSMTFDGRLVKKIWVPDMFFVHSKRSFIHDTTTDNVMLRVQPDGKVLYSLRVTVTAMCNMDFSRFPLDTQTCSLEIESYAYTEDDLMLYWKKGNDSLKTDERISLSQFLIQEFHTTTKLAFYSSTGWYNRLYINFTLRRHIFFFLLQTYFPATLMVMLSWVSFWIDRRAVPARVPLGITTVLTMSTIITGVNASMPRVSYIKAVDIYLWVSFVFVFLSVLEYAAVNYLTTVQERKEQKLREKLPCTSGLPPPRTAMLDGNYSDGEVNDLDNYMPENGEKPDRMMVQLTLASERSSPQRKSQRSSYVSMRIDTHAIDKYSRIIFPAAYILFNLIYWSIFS
Chain of GABA B receptor (Q9Z0U4 whole entry): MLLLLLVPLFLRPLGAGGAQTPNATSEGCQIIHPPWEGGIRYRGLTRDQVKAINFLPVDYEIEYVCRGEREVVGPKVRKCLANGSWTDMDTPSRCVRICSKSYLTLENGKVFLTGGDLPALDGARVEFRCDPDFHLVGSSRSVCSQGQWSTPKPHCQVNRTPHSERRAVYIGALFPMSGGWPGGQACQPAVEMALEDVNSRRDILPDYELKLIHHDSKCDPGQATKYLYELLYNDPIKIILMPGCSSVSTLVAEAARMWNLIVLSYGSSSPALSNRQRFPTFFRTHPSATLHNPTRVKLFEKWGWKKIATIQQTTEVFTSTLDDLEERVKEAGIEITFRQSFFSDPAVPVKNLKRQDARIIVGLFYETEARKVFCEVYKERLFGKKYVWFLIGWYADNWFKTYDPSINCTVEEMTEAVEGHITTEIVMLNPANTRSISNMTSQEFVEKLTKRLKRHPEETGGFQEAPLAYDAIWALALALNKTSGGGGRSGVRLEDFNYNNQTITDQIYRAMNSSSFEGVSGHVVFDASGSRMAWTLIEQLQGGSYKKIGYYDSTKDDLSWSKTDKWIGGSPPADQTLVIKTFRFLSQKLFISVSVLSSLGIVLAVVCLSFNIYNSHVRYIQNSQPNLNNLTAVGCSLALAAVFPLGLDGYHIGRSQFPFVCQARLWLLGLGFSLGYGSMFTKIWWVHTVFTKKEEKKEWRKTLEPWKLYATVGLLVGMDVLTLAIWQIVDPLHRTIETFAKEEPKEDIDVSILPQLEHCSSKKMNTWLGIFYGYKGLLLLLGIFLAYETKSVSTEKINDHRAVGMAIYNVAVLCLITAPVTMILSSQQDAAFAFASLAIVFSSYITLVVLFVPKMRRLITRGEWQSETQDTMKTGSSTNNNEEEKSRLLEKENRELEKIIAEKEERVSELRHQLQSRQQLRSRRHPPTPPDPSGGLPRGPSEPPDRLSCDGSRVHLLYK
Chain of GABA B receptor (O88871 whole entry): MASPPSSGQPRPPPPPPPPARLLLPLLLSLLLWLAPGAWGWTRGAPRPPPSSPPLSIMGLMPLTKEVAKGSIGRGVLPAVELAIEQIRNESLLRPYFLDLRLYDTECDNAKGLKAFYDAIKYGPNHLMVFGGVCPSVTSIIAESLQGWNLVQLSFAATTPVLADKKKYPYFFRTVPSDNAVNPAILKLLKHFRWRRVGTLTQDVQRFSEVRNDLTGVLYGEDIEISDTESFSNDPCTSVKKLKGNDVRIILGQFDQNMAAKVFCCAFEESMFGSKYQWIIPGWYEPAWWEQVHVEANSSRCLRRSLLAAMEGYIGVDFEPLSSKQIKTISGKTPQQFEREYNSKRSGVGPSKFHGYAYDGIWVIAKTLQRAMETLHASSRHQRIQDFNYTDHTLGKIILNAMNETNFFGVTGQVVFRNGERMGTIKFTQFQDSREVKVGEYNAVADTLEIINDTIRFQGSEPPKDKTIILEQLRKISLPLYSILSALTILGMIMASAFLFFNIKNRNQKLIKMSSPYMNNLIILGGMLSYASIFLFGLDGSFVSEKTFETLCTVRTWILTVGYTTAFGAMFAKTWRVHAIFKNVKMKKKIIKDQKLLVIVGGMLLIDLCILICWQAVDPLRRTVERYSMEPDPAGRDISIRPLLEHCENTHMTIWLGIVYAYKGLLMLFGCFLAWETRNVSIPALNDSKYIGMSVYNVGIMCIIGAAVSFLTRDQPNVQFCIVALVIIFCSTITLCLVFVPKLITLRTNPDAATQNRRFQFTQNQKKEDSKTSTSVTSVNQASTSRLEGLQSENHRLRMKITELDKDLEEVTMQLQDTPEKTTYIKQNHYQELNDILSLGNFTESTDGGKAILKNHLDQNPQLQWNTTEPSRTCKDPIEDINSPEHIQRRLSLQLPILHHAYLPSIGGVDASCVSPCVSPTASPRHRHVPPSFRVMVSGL

IC50 (GABA B receptor)	Kb [1]	pKa [2]	logD [3]	Log KB [4]	Structure (SMILES)
> 1000 µM	inactive	6.52	-1.7	–	NCc1ccc(F)c(O)c1F
> 1000 µM	75.5 µM	6.98	-1.7	-4.12	NCc1cc(F)c(O)c(F)c1
–	–	–	-3.1	–	NCCCC(=O)O [GAMMA-AMINOBUTYRIC ACID]

Structure (SMILES)	IC50 (GABA B receptor)	Kb [1]	pKa [2]	logD [3]	Log KB [4]
CP(=O)(O)C1=CCNCC1	–	–	–	-3.7	–
